Target: human A2A receptor (A2AR) (Homo sapiens (Human), UniProt P29274)
Experiment: Luciferase reporter assay (HEK293-A2AR-luc2p/CRE/Hygro cells)
Format: cell-based
Details: 3 nM CGS21680, 5 h incubation
Description: HEK293 cells were maintained in Dulbecco's modified Eagle's medium (DMEM, Gibco) supplemented with 10% fetal bovine serum (FBS, Thermo Scientific), 100 units/mL penicillin (Gibco), and 0.1 mg/mL streptomycin (Gibco) in a humidified 37° C. environment with 5% CO2. Plasmid encoding wild-type human A2A receptor (A2AR) (in pcDNA3.1) was synthesized by Genscript (Nanjing, China). Transfection of the plasmids was performed in 6-well plates with 4×10^5 cells using Lipofectamin 2000 (ThermoFisher Scientific) according to the instruction of the manufacturer. Cell clones that stably express A2AR were established and maintained in the same complete medium as the HEK293 cells in addition of G-418 (Gibico). Expression level of A2AR in each single cell clone was determined using immunoblotting and FACS method. HEK293-A2AR stable cells were then transfected with pGL4.29[luc2P/CRE/Hygro] (Promega) luciferase reporter plasmid for establishing the HEK293-A2AR-luc2p/CRE/Hygro stable cell line.
HEK293-A2AR-luc2p/CRE/Hygro cells were seeded at a density of 5,000 cells/well in DMEM with 1% FBS and 1 U/mL adenosine deaminase (ADA) (Sigma). After 18 h, the cells were treated with 3 nM CGS21680 plus a series dilution of A2AR antagonist, the compounds disclosed herein at the concentration of 0.1˜10000 nM, prepared in DMEM with 1% FBS. After 5 h incubation, the luciferase activity in cells were measured using the Bright-Glo Luciferase Assay System (Promega) according to manufacturer's instructions. The luminescence signal was measured using a PHERAstar FS plate reader (BMG Labtech). […] Maximal luminescence intensity was determined in the presence of 3 nM CGS21680 and was set as 100%. The IC50 value was calculated from a dose dependent inhibition curve across the range of compound concentrations.

human A2A receptor (A2AR), sequence (P29274 whole entry): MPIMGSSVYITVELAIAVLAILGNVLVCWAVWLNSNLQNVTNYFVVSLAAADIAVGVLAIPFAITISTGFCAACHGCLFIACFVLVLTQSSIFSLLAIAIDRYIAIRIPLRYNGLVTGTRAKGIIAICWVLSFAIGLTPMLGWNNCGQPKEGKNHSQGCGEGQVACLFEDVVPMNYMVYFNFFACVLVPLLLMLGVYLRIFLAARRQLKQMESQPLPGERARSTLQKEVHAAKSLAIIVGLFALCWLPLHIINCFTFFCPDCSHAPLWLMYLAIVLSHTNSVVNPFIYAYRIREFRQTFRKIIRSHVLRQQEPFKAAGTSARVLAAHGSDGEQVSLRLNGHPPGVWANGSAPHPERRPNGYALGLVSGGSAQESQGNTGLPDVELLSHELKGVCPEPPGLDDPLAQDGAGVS

| SMILES | IC50 |
| --- | --- |
| Nc1nc2c(cnn2C(C(=O)N[C@H]2CC[C@@H](O)CC2)c2ccccc2)c2nc(-c3ccco3)nn12 (mixture of isomers) [Example 92, 2-(5-amino-2-(furan-2-yl)-7H-pyrazolo[4,3-e][1,2,4]triazolo[1,5-c]pyrimidin-7-yl)-(cis)-N-(4-hydroxycyclohexyl)-2-phenylacetamide] | 12.4 nM |
| CC(C(=O)N[C@H]1CC[C@H](O)CC1)(c1ccccc1)n1ncc2c1nc(N)n1nc(-c3ccco3)nc21 (relative stereo) [Example 52, 2-(5-amino-2-(furan-2-yl)-7H-pyrazolo[4,3-e][1,2,4]triazolo[1,5-c]pyrimidin-7-yl)-(trans)-N-(4-hydroxycyclohexyl)-2-phenylpropanamide] | 6.7 nM |
| CC(C(=O)N[C@H]1CC[C@@H](O)CC1)(c1ccccc1)n1ncc2c1nc(N)n1nc(-c3ccco3)nc21 (relative stereo) [Example 76, 2-(5-amino-2-(furan-2-yl)-7H-pyrazolo[4,3-e][1,2,4]triazolo[1,5-c]pyrimidin-7-yl)-(cis)-N-(4-hydroxycyclohexyl)-2-phenylpropanamide] | 5.2 nM |
| CC(C(=O)N[C@H]1C[C@H](O)C1)(c1ccccc1)n1ncc2c1nc(N)n1nc(-c3ccco3)nc21 (relative stereo) [Example 102, 2-(5-amino-2-(furan-2-yl)-7H-pyrazolo[4,3-e][1,2,4]triazolo[1,5-c]pyrimidin-7-yl)-(trans)-N-(3-hydroxycyclobutyl)-2-phenylpropanamide] | 13.3 nM |
| C[C@](C(=O)N[C@H]1CC[S@@+]([O-])CC1)(c1ccccc1)n1ncc2c1nc(N)n1nc(-c3ccco3)nc21 (single isomer, unassigned) [Example 146B-1] | 39.3 nM |
| C[C@](C(=O)NC1CC[S+]([O-])CC1)(c1ccccc1)n1ncc2c1nc(N)n1nc(-c3ccco3)nc21 (single isomer, unassigned) [Example 146B-2] | 43.9 nM |
| CC1(O)CCC(NC(=O)[C@](C)(c2ccccc2)n2ncc3c2nc(N)n2nc(-c4ccco4)nc32)CC1 (stereo in doubt) [Example 33A, (S)-2-(5-amino-2-(furan-2-yl)-7H-pyrazolo[4,3-e][1,2,4]triazolo[1,5-c]pyrimidin-7-yl)-(trans)-N-(4-hydroxy-4-methylcyclohexyl)-2-phenylpropanamide] | 13.2 nM |
| CC1(O)CCC(NC(=O)[C@](C)(c2ccccc2)n2ncc3c2nc(N)n2nc(-c4ccco4)nc32)CC1 (stereo in doubt) [Example 69A, (S)-2-(5-amino-2-(furan-2-yl)-7H-pyrazolo[4,3-e][1,2,4]triazolo[1,5-c]pyrimidin-7-yl)-(cis)-N-(4-hydroxy-4-methylcyclohexyl)-2-phenylpropanamide] | 41.6 nM |
| Nc1nc2c(cnn2C(C(=O)NC2CCCCC2)c2ccccc2)c2nc(-c3ccco3)nn12 (stereo not drawn) [Example 2, 2-(5-amino-2-(furan-2-yl)-7H-pyrazolo[4,3-e][1,2,4]triazolo[1,5-c]pyrimidin-7-yl)-N-cyclohexyl-2-phenylacetamide] | 11.9 nM |
| CCNC(=O)C(c1ccccc1)n1ncc2c1nc(N)n1nc(-c3ccco3)nc21 (stereo not drawn) [Example 5, 2-(5-amino-2-(furan-2-yl)-7H-pyrazolo[4,3-e][1,2,4]triazolo[1,5-c]pyrimidin-7-yl)-N-ethyl-2-phenylacetamide] | 7 nM |
| CCOc1ccccc1CNC(=O)C(c1ccccc1)n1ncc2c1nc(N)n1nc(-c3ccco3)nc21 (stereo not drawn) [Example 6, 2-(5-amino-2-(furan-2-yl)-7H-pyrazolo[4,3-e][1,2,4]triazolo[1,5-c]pyrimidin-7-yl)-N-(2-triethoxybenzyl)-2-phenylacetamide] | 0.9 nM |
| C[C@H](NC(=O)C(c1ccccc1)n1ncc2c1nc(N)n1nc(-c3ccco3)nc21)c1ccccc1 (stereo partly drawn) [Example 9, 2-(5-amino-2-(furan-2-yl)-7H-pyrazolo[4,3-e][1,2,4]triazolo[1,5-c]pyrimidin-7-yl)-2-phenyl-N—((S)-1-phenylethy)acetamide] | 31.9 nM |
| C[C@@H](NC(=O)C(c1ccccc1)n1ncc2c1nc(N)n1nc(-c3ccco3)nc21)c1ccccc1 (stereo partly drawn) [Example 10, 2-(5-amino-2-(furan-2-yl)-7H-pyrazolo[4,3-e][1,2,4]triazolo[1,5-c]pyrimidin-7-yl)-2-phenyl-N—((R)-1-phenylethyl)acetamide] | 16.5 nM |
| Nc1nc2c(cnn2C(C(=O)NC2CCOCC2)c2ccccc2)c2nc(-c3ccco3)nn12 (stereo not drawn) [Example 11, 2-(5-amino-2-(furan-2-yl)-7H-pyrazolo[4,3-e][1,2,4]triazolo[1,5-c]pyrimidin-7-yl)-2-phenyl-N-(tetrahydro-2H-pyran-4-yl)acetamide] | 36 nM |
| Nc1nc2c(cnn2C(C(=O)NC2CCCC2)c2ccccc2)c2nc(-c3ccco3)nn12 (stereo not drawn) [Example 12, 2-(5-amino-2-(furan-2-yl)-7H-pyrazolo[4,3-e][1,2,4]triazolo[1,5-c]pyrimidin-7-yl)-N-cyclopentyl-2-phenylacetamide] | 10.2 nM |
| Nc1nc2c(cnn2C(C(=O)NC2CCCc3ccccc32)c2ccccc2)c2nc(-c3ccco3)nn12 (stereo not drawn) [Example 13, 2-(5-amino-2-(furan-2-yl)-7H-pyrazolo[4,3-e][1,2,4]triazolo[1,5-c]pyrimidin-7-yl)-2-phenyl-N-(1,2,3,4-tetrahydronaphthalen-1-yl)acetamide] | 8.3 nM |
| Nc1nc2c(cnn2C(C(=O)NC2CCc3ccccc32)c2ccccc2)c2nc(-c3ccco3)nn12 (stereo not drawn) [Example 14, 2-(5-amino-2-(furan-2-yl)-7H-pyrazolo[4,3-e][1,2,4]triazolo[1,5-c]pyrimidin-7-yl)-N-(2,3-dihydro-1H-inden-1-yl)-2-phenylacetamide] | 6.1 nM |
| Nc1nc2c(cnn2C(C(=O)N[C@@H]2CCOc3ccccc32)c2ccccc2)c2nc(-c3ccco3)nn12 (stereo partly drawn) [Example 15, 2-(5-amino-2-(furan-2-yl)-7H-pyrazolo[4,3-e][1,2,4]triazolo[1,5-c]pyrimidin-7-yl)-N—((R)-chroman-4-yl)-2-phenylacetamide] | 7.9 nM |
| Nc1nc2c(cnn2C(C(=O)N[C@H]2CCOc3ccccc32)c2ccccc2)c2nc(-c3ccco3)nn12 (stereo partly drawn) [Example 16, 2-(5-amino-2-(furan-2-yl)-7H-pyrazolo[4,3-e][1,2,4]triazolo[1,5-c]pyrimidin-7-yl)-N—((S)-chroman-4-yl)-2-phenylacetamide] | 44.6 nM |

The remaining molecules from weak to strong by IC50, led by results:

| IC50 | SMILES |
| --- | --- |
| 5.2 nM | Nc1nc2c(cnn2C(C(=O)Nc2ccccc2)c2ccccc2)c2nc(-c3ccco3)nn12 (stereo not drawn) [Example 3, 2-(5-amino-2-(furan-2-yl)-7H-pyrazolo[4,3-e][1,2,4]triazolo[1,5-c]pyrimidin-7-yl)-N,2-diphenylacetamide] |
| 5 nM | CC1(O)CC(NC(=O)[C@@](C)(c2ccccc2)n2ncc3c2nc(N)n2nc(-c4ccco4)nc32)C1 (stereo in doubt) [Example 105B, (R)-2-(5-amino-2-(furan-2-yl)-7H-pyrazolo[4,3-e][1,2,4]triazolo[1,5-c]pyrimidin-7-yl)-(cis)-N-(3-hydroxy-3-methylcyclobutyl)-2-phenylpropanamide] |
| 3.8 nM | CNC(=O)C(c1ccccc1)n1ncc2c1nc(N)n1nc(-c3ccco3)nc21 (stereo not drawn) [Example 4, 2-(5-amino-2-(furan-2-yl)-7H-pyrazolo[4,3-e][1,2,4]-triazolo[1,5-c]pyrimidin-7-yl)-N-methyl-2-phenylacetamide] |
| 2.3 nM | CC1(O)CCC(NC(=O)[C@@](C)(c2ccccc2)n2ncc3c2nc(N)n2nc(-c4ccco4)nc32)CC1 (stereo in doubt) [Example 33B, (R)-2-(5-amino-2-(furan-2-yl)-7H-pyrazolo[4,3-e][1,2,4]triazolo[1,5-c]pyrimidin-7-yl)-(trans)-N-(4-hydroxy-4-methylcyclohexyl)-2-phenylpropanamide] |
| 2 nM | Nc1nc2c(cnn2C(C(=O)NCc2ccccc2OC(F)(F)F)c2ccccc2)c2nc(-c3ccco3)nn12 (stereo not drawn) [Example 8, 2-(5-amino-2-(furan-2-yl)-7H-pyrazolo[4,3-e][1,2,4]triazolo[1,5-c]pyrimidin-7-yl)-2-phenyl-N-(2-(trifluoromethoxy)benzyl)acetamide] |
| 1.9 nM | COc1ccccc1C(C)(C(=O)N[C@H]1CC[C@@H](O)CC1)n1ncc2c1nc(N)n1nc(-c3ccco3)nc21 (relative stereo) [Example 139, 2-(5-amino-2-(furan-2-yl)-7H-pyrazolo[4,3-e][1,2,4]triazolo[1,5-c]pyrimidin-7-yl)-N-((cis)-4-hydroxycyclohexyl)-2-(2-methoxyphenyl)propanamide] |
| 1.5 nM | Nc1nc2c(cnn2C(C(=O)NCc2ccccc2F)c2ccccc2)c2nc(-c3ccco3)nn12 (stereo not drawn) [Example 7, 2-(5-amino-2-(furan-2-yl)-7H-pyrazolo[4,3-e][1,2,4]triazolo[1,5-c]pyrimidin-7-yl)-N-(2-fluorobenzyl)-2-phenylacetamide] |
| 1.4 nM | Nc1nc2c(cnn2C(C(=O)NCc2ccccc2)c2ccccc2)c2nc(-c3ccco3)nn12 (stereo not drawn) [Example 1, 2-(5-amino-2-(furan-2-yl)-7H-pyrazolo[4,3-e][1,2,4]triazolo[1,5-c]pyrimidin-7-yl)-N-benzyl-2-phenylacetamide] |

Reference: patent publication US11472811B2, “Pyrazolotriazolopyrimidine derivatives as A2A receptor antagonist” (BEIGENE, LTD., priority 2018, dated 2022)
